In the oligonucleotide strings, read from the 5' end, every base follows the letter of its sugar. An asterisk marks phosphorothioate; unmarked linkages are phosphodiester. Other units and linkages are bracketed, terminal groups are in braces. A string of capitals states the bases alone. {NAG37} = tridentate N-acetyl-galactosamine targeting ligand, structure (NAG37)s; [invAb] = inverted abasic unit; m = 2'-O-methyl; f = 2'-fluoro
Key:
ANGPTL3 gene [1] = assay: Example 11: dose response, serum triglycerides in mice; assay type: in vivo, C57bl/6 mice
Description: To assess the dose response of ANGPTL3 RNAi agent AD05488, six- to eight-week-old female C57bl/6 mice were used. Pre-dose serum samples were taken at day −1 after a four hour fast. At day 1, each mouse was given a single subcutaneous administration of 200 μl containing the respective mg/kg dose of an ANGPTL3 RNAi agent in D5W (dextrose in 5% water), or control (D5W) with no RNAi agent, according to the dosing groups recited in Table 53:
The RNAi agent tested (AD05488) included a modified sequence and an N-acetyl-galactosamine-containing targeting ligand conjugated to the 5′ terminal end of the sense strand. (See Tables 3, 4, and 5 for modified sequences and targeting ligand structures). The injections were performed between the skin and muscle (i.e. subcutaneous injections) into the loose skin over the neck and shoulder area. Four (4) mice in each group were tested (n=4). Serum was collected on days 8, 15, 22, and 29. Mice were fasted for four hours prior to each collection. ANGPTL3 protein levels in serum were measured by ELISA assay (R&D Systems), according to the manufacturer's recommendations. Triglycerides, total cholesterol, high-density lipoprotein (HDL), and low-density lipoprotein (LDL) in serum were measured on a Cobas® Integra 400 (Roche Diagnostics), according to the manufacturer's recommendations.
The ANGPTL3 protein levels, triglyceride levels, total cholesterol levels, HDL levels, and LDL levels for each animal were normalized. For normalization, the level of ANGPTL3 protein, triglyceride, HDL, and total cholesterol, respectively, for each animal at a time point, was divided by the pre-treatment level of expression in that animal (in this case at day −1) to determine the ratio of expression “normalized to pre-treatment.” Expression at a specific time point was then normalized to the D5W control group by dividing the “normalized to pre-treatment” ratio for an individual animal by the mean “normalized to pretreatment” ratio of all mice in the D5W control group.

ANGPTL3 gene [2] = assay: Example 12: serum triglycerides in LDLR knockout mice; assay type: in vivo, LDLR KO mice
From the text: To evaluate the effect of RNAi agent administration in a disease model, mice having a genetic mutation for the LDL receptor (referred to herein as LDLR KO mice) were commercially obtained (The Jackson Laboratory). The LDLR KO mice are homozygous for the Ldlr^tm1Her mutation, and have elevated serum cholesterol levels, particularly when placed on a high fat diet. For three weeks prior to the onset of the study, thirty-nine (39) LDLR KO mice were placed on a high fat diet (Teklad Custom Diets TD.88137). An additional eight (8) LDLR KO mice were placed on a normal chow diet over the same three-week period. Pre-dose serum samples were taken on day −15 and day −1 after a four hour fast. At day 1, each mouse was given a single subcutaneous administration of 200 μl/30 g animal body weight containing the respective mg/kg dose of an ANGPTL3 RNAi agent in D5W (dextrose in 5% water), control (D5W) with no RNAi agent, or a control RNAi agent that included a nucleotide sequence designed to target the Hepatitis B Virus (HBV) genome. A second injection of the same formulation was administered to the animals on day 29. The dosing regimen for the study is recited in the following Table 60:
Each mouse remained on its respective diet through the duration of study. The RNAi agent tested (AD05488) included a modified sequence and an N-acetyl-galactosamine-containing targeting ligand conjugated to the 5′ terminal end of the sense strand. (See Tables 3, […] modified sequences and targeting ligand structures). The injections were performed between the skin and muscle (i.e. subcutaneous injections) into the loose skin over the neck and shoulder area. Serum was collected on days 8, 15, 22, 29 (pre-second dose), 36, 43, 50, and 57. LDLR KO mice were fasted for four hours prior to each collection. On day 15, four (4) LDLR KO mice from Groups 1, 2, and 3 (i.e., the groups being administered the high fat “Western” diet) were sacrificed after serum collection, and on day 29, an additional four (4) LDLR KO mice from Groups 1, 2, and 3 were sacrificed after serum collection, for the purpose of performing mRNA assessments.
ANGPTL3 protein levels in serum were measured by ELISA assay (R&D Systems), according to the manufacturer's recommendations. Triglycerides, total cholesterol, high-density lipoprotein (HDL), and low-density lipoprotein (LDL) in serum were measured on a Cobas® Integra 400 (Roche Diagnostics), according to the manufacturer's recommendations.
The ANGPTL3 protein levels, triglyceride levels, total cholesterol levels, HDL levels, and LDL levels for each animal were normalized. For normalization, respective levels of ANGPTL3 protein, TG, total cholesterol, HDL, or LDL for each animal at a time point was divided by the average pre-treatment level of expression in that animal (in this case the average of day −15 and day −1) to determine the ratio of expression “normalized to pre-treatment.”
Expression at a specific time point was then normalized to the D5W control group that was administered the same diet (i.e., either the high fat “Western” diet or the normal chow-fed diet) by dividing the “normalized to pre-treatment” ratio for an individual animal by the mean “normalized to pretreatment” ratio of all mice in the D5W control group on the respective same diet, resulting in expression for each time point normalized to that in the control group.

Substance: AD05488: RNAi agent duplex: antisense AM07235-AS, sense AM07234-SS (antisense mU*fA*mC*fUmGfAmUfCmAfAmAfUmAfUmGfUmUfGmAfG*mC; sense {NAG37}*[invAb]*mGmCmUmCmAmAmCmAfUfAfUmUmUmGmAmUmCmAmGmUmA*[invAb])
- Avg TG (Triglycerides) Normalized to Pre-Treatment and Control (ANGPTL3 gene [1]; 0.05 mg/kg single sc day 1, Day 8): 1.296
- Avg TG (Triglycerides) Normalized to Pre-Treatment and Control (ANGPTL3 gene [1]; 0.05 mg/kg single sc day 1, Day 15): 1.274
- Avg TG (Triglycerides) Normalized to Pre-Treatment and Control (ANGPTL3 gene [1]; 0.05 mg/kg single sc day 1, Day 22): 1.202
- Avg TG (Triglycerides) Normalized to Pre-Treatment and Control (ANGPTL3 gene [1]; 0.05 mg/kg single sc day 1, Day 29): 1.999
- Avg TG (Triglycerides) Normalized to Pre-Treatment and Control (ANGPTL3 gene [1]; 0.1 mg/kg single sc day 1, Day 8): 1.116
- Avg TG (Triglycerides) Normalized to Pre-Treatment and Control (ANGPTL3 gene [1]; 0.1 mg/kg single sc day 1, Day 15): 1.141
- Avg TG (Triglycerides) Normalized to Pre-Treatment and Control (ANGPTL3 gene [1]; 0.1 mg/kg single sc day 1, Day 22): 1.234
- Avg TG (Triglycerides) Normalized to Pre-Treatment and Control (ANGPTL3 gene [1]; 0.1 mg/kg single sc day 1, Day 29): 1.798
- Avg TG (Triglycerides) Normalized to Pre-Treatment and Control (ANGPTL3 gene [1]; 0.5 mg/kg single sc day 1, Day 8): 1.028
- Avg TG (Triglycerides) Normalized to Pre-Treatment and Control (ANGPTL3 gene [1]; 0.5 mg/kg single sc day 1, Day 15): 1.027
- Avg TG (Triglycerides) Normalized to Pre-Treatment and Control (ANGPTL3 gene [1]; 0.5 mg/kg single sc day 1, Day 22): 0.864
- Avg TG (Triglycerides) Normalized to Pre-Treatment and Control (ANGPTL3 gene [1]; 0.5 mg/kg single sc day 1, Day 29): 1.855
- Avg TG (Triglycerides) Normalized to Pre-Treatment and Control (ANGPTL3 gene [1]; 1.0 mg/kg single sc day 1, Day 8): 0.860
- Avg TG (Triglycerides) Normalized to Pre-Treatment and Control (ANGPTL3 gene [1]; 1.0 mg/kg single sc day 1, Day 15): 0.755
- Avg TG (Triglycerides) Normalized to Pre-Treatment and Control (ANGPTL3 gene [1]; 1.0 mg/kg single sc day 1, Day 22): 0.720
- Avg TG (Triglycerides) Normalized to Pre-Treatment and Control (ANGPTL3 gene [1]; 1.0 mg/kg single sc day 1, Day 29): 1.254
- Avg TG (Triglycerides) Normalized to Pre-Treatment and Control (ANGPTL3 gene [1]; 2.5 mg/kg single sc day 1, Day 8): 0.623
- Avg TG (Triglycerides) Normalized to Pre-Treatment and Control (ANGPTL3 gene [1]; 2.5 mg/kg single sc day 1, Day 15): 0.556
- Avg TG (Triglycerides) Normalized to Pre-Treatment and Control (ANGPTL3 gene [1]; 2.5 mg/kg single sc day 1, Day 22): 0.447
- Avg TG (Triglycerides) Normalized to Pre-Treatment and Control (ANGPTL3 gene [1]; 2.5 mg/kg single sc day 1, Day 29): 0.772
- Avg TG (Triglycerides) Normalized to Pre-Treatment and Control (ANGPTL3 gene [1]; 5.0 mg/kg single sc day 1, Day 8): 0.923
- Avg TG (Triglycerides) Normalized to Pre-Treatment and Control (ANGPTL3 gene [1]; 5.0 mg/kg single sc day 1, Day 15): 0.892
- Avg TG (Triglycerides) Normalized to Pre-Treatment and Control (ANGPTL3 gene [1]; 5.0 mg/kg single sc day 1, Day 22): 0.781
- Avg TG (Triglycerides) Normalized to Pre-Treatment and Control (ANGPTL3 gene [1]; 5.0 mg/kg single sc day 1, Day 29): 1.128
- reductions in TG levels (ANGPTL3 gene [2]; 3.0 mg/kg on days 1 and 29 (Groups 2 and 5), LDLR KO mice): significant reductions
- Avg TG (Triglycerides) Normalized to Pre-Treatment and Control (Diet Matched) (ANGPTL3 gene [2]; 3.0 mg/kg sc day 1, High Fat Diet, Day 8): 0.121
- Avg TG (Triglycerides) Normalized to Pre-Treatment and Control (Diet Matched) (ANGPTL3 gene [2]; 3.0 mg/kg sc day 1, High Fat Diet, Day 15): 0.086
- Avg TG (Triglycerides) Normalized to Pre-Treatment and Control (Diet Matched) (ANGPTL3 gene [2]; 3.0 mg/kg sc day 1, High Fat Diet, Day 22): 0.094
- Avg TG (Triglycerides) Normalized to Pre-Treatment and Control (Diet Matched) (ANGPTL3 gene [2]; 3.0 mg/kg sc day 1, High Fat Diet, Day 29 (pre-second dose)): 0.096
- Avg TG (Triglycerides) Normalized to Pre-Treatment and Control (Diet Matched) (ANGPTL3 gene [2]; 3.0 mg/kg sc day 1, Normal Diet, Day 8): 0.472
- Avg TG (Triglycerides) Normalized to Pre-Treatment and Control (Diet Matched) (ANGPTL3 gene [2]; 3.0 mg/kg sc day 1, Normal Diet, Day 15): 0.503
- Avg TG (Triglycerides) Normalized to Pre-Treatment and Control (Diet Matched) (ANGPTL3 gene [2]; 3.0 mg/kg sc day 1, Normal Diet, Day 22): 0.473
- Avg TG (Triglycerides) Normalized to Pre-Treatment and Control (Diet Matched) (ANGPTL3 gene [2]; 3.0 mg/kg sc day 1, Normal Diet, Day 29 (pre-second dose)): 0.480
- Avg TG (Triglycerides) Normalized to Pre-Treatment and Control (Diet Matched) (ANGPTL3 gene [2]; 3.0 mg/kg sc days 1 and 29, High Fat Diet, Day 36): 0.104
- Avg TG (Triglycerides) Normalized to Pre-Treatment and Control (Diet Matched) (ANGPTL3 gene [2]; 3.0 mg/kg sc days 1 and 29, High Fat Diet, Day 43): 0.084
- Avg TG (Triglycerides) Normalized to Pre-Treatment and Control (Diet Matched) (ANGPTL3 gene [2]; 3.0 mg/kg sc days 1 and 29, High Fat Diet, Day 50): 0.091
- Avg TG (Triglycerides) Normalized to Pre-Treatment and Control (Diet Matched) (ANGPTL3 gene [2]; 3.0 mg/kg sc days 1 and 29, High Fat Diet, Day 57): 0.079
- Avg TG (Triglycerides) Normalized to Pre-Treatment and Control (Diet Matched) (ANGPTL3 gene [2]; 3.0 mg/kg sc days 1 and 29, Normal Diet, Day 36): 0.548
- Avg TG (Triglycerides) Normalized to Pre-Treatment and Control (Diet Matched) (ANGPTL3 gene [2]; 3.0 mg/kg sc days 1 and 29, Normal Diet, Day 43): 0.348
- Avg TG (Triglycerides) Normalized to Pre-Treatment and Control (Diet Matched) (ANGPTL3 gene [2]; 3.0 mg/kg sc days 1 and 29, Normal Diet, Day 50): 0.625
- Avg TG (Triglycerides) Normalized to Pre-Treatment and Control (Diet Matched) (ANGPTL3 gene [2]; 3.0 mg/kg sc days 1 and 29, Normal Diet, Day 57): 0.438

From US12729377B2, “RNAi agents and compositions for inhibiting expression of angiopoietin-like 3 (ANGPTL3), and methods of use” (Arrowhead Pharmaceuticals, Inc., priority 2017, dated 2026)
